IC50 data for 61 molecules are collected here from patent US10633389B2, “CARM1 inhibitors and uses thereof” (Epizyme, Inc., priority 2013, dated 2020).

Molecules are shown by their SMILES. A value given as a limit tells only on which side of the number the result lay.

The test relates to asymmetric di-methyl PABP1 in RKO cells. Briefly: RKO methylation assay, In Cell Western (ICW) for asymmetric di-methyl PABP1. It counts as cell-based. The conditions noted are these: Homo sapiens, RKO, Cellular potencies, ICW PABP1me2a. The procedure, abridged:
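RKO cells treated with compound for 48 h at 37 °C, then fixed, permeabilized and immunostained for asymmetric di-methyl PABP1, with DRAQ5 as DNA stain. Infrared 700/800 nm signal ratio normalized to DMSO and 20 μM reference-compound controls; IC50 from triplicate wells.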

On to `CNCC(O)COc1cccc(-c2nc(C(C)=O)c(C)c(N(C)C3CCOCC3)n2)c1` (stereo not shown) [Example 544-1a], for which the IC50 (commonly the point on the concentration scale where inhibition reaches its midpoint) lay in the range of 10 to 20 µM. Under `CNCC(O)COc1cc(Cl)cc(-c2nc(-c3ccncc3C3CC3)cc(N(C)C3CCOCC3)n2)c1` (stereo not shown) [Example 522-1a] stands 5 to 10 µM; under `CC[C@H]1CN(c2nc(-c3cccc(OCC(O)CNC)c3)nc(-c3c(C)noc3C)c2C)CCN1C1CC1` (stereo partly shown) [Example 178-1a], 10 to 20 µM. Under `CNCC(O)COc1cccc(-c2nc(-c3c(C)noc3C)cc(N3CCN(n4c(C)nnc4C)CC3)n2)c1` (stereo not shown) [Example 165-1a] stands under 5 µM; under `CNC[C@@H](O)COc1ccc(Cl)c(-c2nc(-c3c(C)noc3C)c(C)c(N3CC4CC4C3)n2)c1` (stereo partly shown) [Example 235-3], under 5 µM; under `CNC[C@@H](O)COc1ccc(Cl)c(-c2nc(-c3c(C)noc3C)c(C)c(N3CCC4(CC3)CN(C3CC3)C4)n2)c1` [Example 158-3], under 5 µM. The value for `CNC[C@@H](O)COc1ccc(Cl)c(-c2nc(NC3CC4(C3)CN(C(=O)OC)C4)c(C)c(-c3c(C)noc3C)n2)c1` [Example 146-3] was under 5 µM; that for `CNC[C@@H](O)COc1ccc(Cl)c(-c2nc(N[C@H]3CCO[C@@H](C)C3)c(Cl)c(-c3c(C)noc3C)n2)c1` [Example 149-3] was under 5 µM. As for `CNCC(O)COc1cccc(-c2nc(NC3CCOC(C)C3)c(C)c(-c3c(C)noc3C)n2)c1` (stereo not shown) [Example 239-1a], the IC50 was under 5 µM.

In the case of `CNCC(O)COc1cccc(-c2nc(-c3c(C)noc3C)cc(N3CCN(C(=O)N(C)C)[C@H](C)C3)n2)c1` (stereo partly shown) [Example 146-1a], the IC50 is under 5 µM. Under `CNCC(O)COc1cccc(-c2nc(-c3cnn(CC(C)C)c3)cc(N(C)CCC#N)n2)c1` (stereo not shown) [Example 41-1] stands 10 to 20 µM; under `CCNC(=O)N1CCN(c2nc(-c3cccc(OCC(O)CNC)c3)nc(-c3c(C)noc3C)c2C)CC1` (stereo not shown) [Example 106-1a], 5 to 10 µM; under `CNC[C@@H](O)COc1ccc(Cl)c(-c2nc(N[C@@H]3CCN(C4CC4)C[C@@H]3F)c(Cl)c(-c3c(C)noc3C)n2)c1` [Example 211-3], under 5 µM.

In turn, `CNCC(O)COc1cccc(-c2nc(NC3CCOC3)c(C)c(N3CCN[C@@H](C)C3)n2)c1` (stereo partly shown) [Example 351-1a] registered an IC50 of 5 to 10 µM. As for `CNCC(O)COc1cccc(-c2nc(Nc3cnc(OC)nc3)cc(-c3c(C)noc3C)n2)c1` (stereo not shown) [Example 72-1a], the IC50 was under 5 µM. Under `CNCC(O)COc1cccc(-c2nc(-c3c(C)noc3C)cc(N3C[C@@H]4C[C@H]3CN4C(=O)OC)n2)c1` (stereo partly shown) [Example 94-1a] stands under 5 µM; under `CCOC(=O)N1CCOC[C@H]1CNc1nc(-c2cc(OC[C@H](O)CNC)ccc2Cl)nc(-c2c(C)noc2C)c1C` [Example 25-3], under 5 µM. Under `CNC[C@@H](O)COc1ccc(Cl)c(-c2nc(-c3c(C)noc3C)c(C)c(N3CC4(CCN(C(=O)OC)C4)C3)n2)c1` [Example 175-3] stands under 5 µM; under `CCS(=O)(=O)N1CC2(CCCN(c3nc(-c4cccc(OCC(O)CNC)c4)nc(-c4c(C)noc4C)c3C)C2)C1` (stereo not shown) [Example 296-1a], 5 to 10 µM; under `CNCC(O)COc1cccc(-c2nc(-c3c(C)noc3C)cc(N3CCN(C(=O)C4CC4)CC3)n2)c1` (stereo not shown) [Example 133-1a], under 5 µM. Under `CNC[C@@H](O)COc1cccc(-c2nc(NC3CCN(C(=O)OC)CC3)c(C)c(-c3c(C)noc3C)n2)c1` [Example 170-1a] stands under 5 µM. `CNCC(O)COc1cccc(-c2nc(-c3c(C)noc3C)c(C)c(N3CCC[C@@H](NC)C3)n2)c1` (stereo partly shown) [Example 177-1a] had an IC50 of 5 to 10 µM.

In turn, `CNCC(O)COc1cccc(-c2nc(-c3c(C)noc3C)cc(N3C[C@H]4C[C@@H]3CN4S(C)(=O)=O)n2)c1` (stereo partly shown) [Example 100-1a] registered an IC50 of 5 to 10 µM. Under `CCOC(=O)c1sc(-c2cc(N(C)C3CCOCC3)nc(-c3cccc(OCC(O)CNC)c3)n2)nc1C` (stereo not shown) [Example 565-1a] stands 10 to 20 µM; under `CNC[C@@H](O)COc1ccc(Cl)c(-c2nc(N[C@@H]3CCN(C(=O)OC)[C@H](C)C3)c(C)c(-c3c(C)noc3C)n2)c1` [Example 135-3], under 5 µM. Under `CNCC(O)COc1cccc(-c2nc(-c3c(C)noc3C)cc(N(C)C3CCOCC3)n2)c1` (stereo not shown) [Example 1-1a] stands under 5 µM.

As for `CNCC(O)COc1cccc(-c2nc(N3CCNCC3)c(C)c(N(C)C3CCOCC3)n2)c1` (stereo not shown) [Example 560-1a], the IC50 fell in the range of 10 to 20 µM.

The molecule `CNCC(O)COc1cccc(-c2nc(-c3c(C)noc3C)cc(N3CCN(CCF)[C@H](C)C3)n2)c1` (stereo partly shown) [Example 145-1a] came in with an IC50 of 5 to 10 µM.

Turning to `CNCC(O)COc1cccc(-c2nc(NC3CCOC3)c(C)c(N3CC4(CCNCC4)c4ccccc43)n2)c1` (stereo not shown) [Example 398-1a], the IC50 is 10 to 20 µM.

`CNCC(O)COc1cccc(-c2nc(SC)cc(N(C)C3CCOCC3)n2)c1` (stereo not shown) [Example 573-1a] displayed an IC50 of 10 to 20 µM. The value for `CNCC(O)COc1cccc(-c2nc(-c3c(C)noc3C)c(C)c(N3CCO[C@H](CO)C3)n2)c1` (stereo partly shown) [Example 125-1a] was under 5 µM. For the molecule `CNCC(O)COc1cccc(-c2nc(N[C@@H]3CC[C@@H](O)C3)cc(-c3c(C)noc3C)n2)c1` (stereo partly shown) [Example 44-1a], the IC50 was in the range of 5 to 10 µM.

As to `CNC[C@@H](O)COc1ccc(Cl)c(-c2nc(-c3c(C)noc3C)c(F)c(N3Cc4nccnc4C3)n2)c1` [Example 297-3], the IC50 is under 5 µM. Under `CNC[C@@H](O)COc1ccc(Cl)c(-c2nc(N[C@H]3CCO[C@H](C)C3)c(Cl)c(-c3c(C)noc3C)n2)c1` [Example 197-3] stands under 5 µM.

Consider `CNCC(O)COc1cc(Cl)cc(-c2nc(C(=O)N(C)CC3CCOCC3)cc(N(C)C3CCOCC3)n2)c1` (stereo not shown) [Example 577-1a], for which the IC50 fell in the range of 10 to 20 µM. Under `CNCC(O)COc1cccc(-c2nc(N3CCN(CCF)[C@@H](C)C3)cc(N(C)C3CCOCC3)n2)c1` (stereo partly shown) [Example 578-1a] stands 10 to 20 µM. The value for `CNCC(O)COc1cccc(-c2nc(-c3ccc(C(F)(F)F)nc3)cc(N(C)C3CCOCC3)n2)c1` (stereo not shown) [Example 613-1a] was 10 to 20 µM; that for `CNCC(O)COc1cccc(-c2nc(-c3c(C)noc3C)c(C)c(N3CCO[C@H](CNC)C3)n2)c1` (stereo partly shown) [Example 124-1a] was 5 to 10 µM.

`CNCC(O)COc1cccc(-c2nc(Nc3cnc(C)nc3)cc(-c3c(C)noc3C)n2)c1` (stereo not shown) [Example 49-1a]: the IC50 was in the range of 5 to 10 µM. The value for `CNC[C@@H](O)COc1ccc(Cl)c(-c2nc(-c3c(C)noc3C)c(C)c(N3CC4(CCCOC4)C3)n2)c1` [Example 119-3] was under 5 µM; that for `CNC[C@@H](O)COc1ccc(Cl)c(-c2nc(N[C@H]3CCN(C(=O)OC)[C@@H](C)C3)c(C)c(-c3c(C)noc3C)n2)c1` [Example 169-3] was under 5 µM. The value for `CNC[C@@H](O)COc1ccc(Cl)c(-c2nc(-c3c(C)noc3C)c(Cl)c(N3Cc4cccnc4C3)n2)c1` [Example 168-3] was under 5 µM. Under `CNCC(O)COc1cccc(-c2nc(N[C@H]3CC[C@H](O)CC3)cc(-c3c(C)noc3C)n2)c1` (stereo partly shown) [Example 32-1a] stands 10 to 20 µM; under `CNC[C@@H](O)COc1ccc(Cl)c(-c2nc(N[C@@H]3CCO[C@@H](C)C3)c(C)c(-c3c(C)noc3C)n2)c1` [Example 257-3], under 5 µM. Consider `CNC[C@@H](O)COc1ccc(Cl)c(-c2nc(-c3c(C)noc3C)c(C)c(N3Cc4cc(Br)cnc4C3)n2)c1` [Example 248-3], for which the IC50 was under 5 µM. Under `CNC[C@@H](O)COc1ccc(Cl)c(-c2nc(-c3c(C)noc3C)c(C)c(N3CC4(CCN(C5CC5)CC4)C3)n2)c1` [Example 108-3] stands under 5 µM. For `CCOC(=O)N1CC[C@@H](Nc2nc(-c3cc(OC[C@H](O)CNC)ccc3Cl)nc(-c3c(C)noc3C)c2Cl)C1` [Example 129-3], the half-maximal inhibitory concentration (IC50) was under 5 µM. The value for `CNCC(O)COc1cccc(-c2nc(NC3CCCN(C4COC4)C3)c(C)c(-c3c(C)noc3C)n2)c1` (stereo not shown) [Example 246-1a] was 5 to 10 µM; that for `CNCC(O)COc1cccc(-c2nc(N3CCN(C)CC3)cc(N(C)C3CCOCC3)n2)c1` (stereo not shown) [Example 531-1a] was 5 to 10 µM. The value for `CCS(=O)(=O)N1CCC(Nc2nc(-c3cccc(OCC(O)CNC)c3)nc(-c3c(C)nsc3C)c2C)CC1` (stereo not shown) [Example 70-3] was under 5 µM; that for `CC[C@H]1CN(c2cc(N(C)C3CCOCC3)nc(-c3cccc(OCC(O)CNC)c3)n2)CCN1` (stereo partly shown) [Example 505-1a] was under 5 µM; that for `CNCC(O)COc1cccc(-c2nc(NC[C@H]3COCCN3C(=O)N(C)C)c(C)c(-c3c(C)noc3C)n2)c1` (stereo partly shown) [Example 258-1a] was 5 to 10 µM. Under `CNCC(O)COc1ccc(C)c(-c2nc(NC3CCN(C(=O)OC)CC3)c(C)c(-c3c(C)noc3C)n2)c1` (stereo not shown) [Example 125-3] stands under 5 µM; under `CNC[C@H](O)COc1ccc(Cl)c(-c2nc(N[C@H]3C[C@H](OC)C3)c(C)c(-c3c(C)noc3C)n2)c1` [Example 53-3], under 5 µM. Take `CCOC(=O)N1CCC(Nc2nc(-c3cccc(OCC(O)CNC)c3)nc(-c3c(C)noc3C)c2C)CC1` (stereo not shown) [Example 189-1a]: the IC50 was under 5 µM. Under `CNCC(O)COc1cc(Cl)cc(-c2nc(-c3cn[nH]c3)c(C)c(N(C)C3CCOCC3)n2)c1` (stereo not shown) [Example 617-1a] stands 10 to 20 µM; under `CNCC(O)COc1cc(Cl)cc(-c2nc(-c3cnn(C)c3)cc(N(C)C3CCOCC3)n2)c1` (stereo not shown) [Example 610-1a], 10 to 20 µM; under `CNC[C@@H](O)COc1ccc(Cl)c(-c2nc(-c3c(C)noc3C)c(C)c(N3CC4(CCOC4)C3)n2)c1` [Example 120-3], under 5 µM.

`CNCC(O)COc1cccc(-c2nc(-c3c(C)noc3C)c(C)c(N3CCOC(C)(C)C3)n2)c1` (stereo not shown) [Example 200-1a] displayed an IC50 of under 5 µM. The value for `CCO[C@@H]1CCC[C@H]1N(CC)c1nc(-c2cc(OC[C@H](O)CNC)ccc2Cl)nc(-c2c(C)noc2C)c1C` [Example 241-3] was under 5 µM. For `CNCC(O)COc1cccc(-c2nc(N[C@@H]3CCOC3)c(C)c(-c3cncc(C(=O)OC)c3)n2)c1` (stereo partly shown) [Example 340-1a], the half-maximal inhibitory concentration (IC50) is 10 to 20 µM.
